Measurements reported in patent US10899709B2, “Novel-alkynyl-substituted 3-phenylpyrrolidine-2,4-diones and use thereof as herbicides” (BAYER CROPSCIENCE AKTIENGESELLSCHAFT, priority 2015, dated 2021).

Experiments:
Type in all cases: in vivo
Avena fatua [1] = assay: Pre-emergence herbicidal effect; details: for Pre-emergence effectiveness AVEFA: visual score after 3 weeks
Description: (§1) Seeds of monocotyledonous and dicotyledonous weed plants and crop plants are laid out in wood-fibre pots in sandy loam and covered with soil. The compounds according to the invention formulated in the form of wettable powders (WP) or as emulsion concentrates (EC) are then applied as aqueous suspension or emulsion at a water application rate of 600 to 800 l/ha (converted) with the addition of 0.2% wetting agent to the surface of the covering soil. After the treatment, the pots are placed in a greenhouse and kept under good growth conditions for the trial plants. The damage to the test plants is scored visually after a test period of 3 weeks by comparison with untreated controls (herbicidal activity in percent (%): 100% activity=the plants have died, 0% activity=like control plants).

Cyperus esculentus = assay: Pre-emergence herbicidal effect; details: for Pre-emergence effectiveness CYPES: 320 g/ha, visual score after 3 weeks
Description: as §1

Setaria viridis [2] = assay: Pre-emergence herbicidal effect; details: for Pre-emergence effectiveness SETVI: visual score after 3 weeks
Description: as §1

Alopecurus myosuroides [3] = assay: Post-emergence herbicidal effect; details: for Post-emergence effectiveness ALOMY: visual assessment after about 3 weeks
Protocol: (§2) Seeds of monocotyledonous and dicotyledonous weed and crop plants are laid out in sandy loam in wood-fibre pots, covered with soil and cultivated in a greenhouse under good growth conditions. 2 to 3 weeks after sowing, the test plants are treated at the one-leaf stage. The compounds according to the invention, formulated in the form of wettable powders (WP) or as emulsion concentrates (EC), are then sprayed as aqueous suspension or emulsion at a water application rate of 600 to 800 l/ha (converted) with the addition of 0.2% of wetting agent onto the green parts of the plants. After the test plants have been left to stand in the greenhouse under optimal growth conditions for about 3 weeks, the action of the preparations is assessed visually in comparison to untreated controls (herbicidal action in percent (%): 100% activity=the plants have died, 0% activity=like control plants).

Avena fatua [4] = assay: Post-emergence herbicidal effect; details: for Post-emergence effectiveness AVEFA: visual assessment after about 3 weeks
Protocol: as §2

PHBPU = assay: Post-emergence herbicidal effect; details: 20 g a.i./ha
Protocol: as §2

Alopecurus myosuroides [5] = assay: Pre-emergence herbicidal effect; details: visual score after 3 weeks
Description: as §1

Echinochloa crus-galli [6] = assay: Pre-emergence herbicidal effect; details: visual score after 3 weeks
Description: as §1

Lolium multiflorum [7] = assay: Pre-emergence herbicidal effect; details: visual score after 3 weeks
Description: as §1

Veronica persica = assay: Pre-emergence herbicidal effect; details: 320 g/ha, visual score after 3 weeks
Description: as §1

Echinochloa crus-galli [8] = assay: Post-emergence herbicidal effect; details: visual assessment after about 3 weeks
Protocol: as §2

Setaria viridis [9] = assay: Post-emergence herbicidal effect; details: visual assessment after about 3 weeks
Protocol: as §2

Lolium multiflorum [10] = assay: Post-emergence herbicidal effect; details: visual assessment after about 3 weeks
Protocol: as §2

Compound	Pre-emergence effectiveness ALOMY (Alopecurus myosuroides [5]; 80 g/ha) [%]	Pre-emergence effectiveness ALOMY (Alopecurus myosuroides [5]; 320 g/ha) [%]	Pre-emergence effectiveness AVEFA (Avena fatua [1]; 320 g/ha) [%]	Pre-emergence effectiveness ECHCG (Echinochloa crus-galli [6]; 80 g/ha) [%]	Pre-emergence effectiveness ECHCG (Echinochloa crus-galli [6]; 320 g/ha) [%]	Pre-emergence effectiveness LOLMU (Lolium multiflorum [7]; 80 g/ha) [%]	Pre-emergence effectiveness LOLMU (Lolium multiflorum [7]; 320 g/ha) [%]	Pre-emergence effectiveness SETVI (Setaria viridis [2]; 80 g/ha) [%]	Pre-emergence effectiveness SETVI (Setaria viridis [2]; 320 g/ha) [%]	Pre-emergence effectiveness VERPE (Veronica persica) [%]	Post-emergence effectiveness ALOMY (Alopecurus myosuroides [3]; 80 g/ha) [%]	Post-emergence effectiveness ECHCG (Echinochloa crus-galli [8]; 20 g/ha) [%]	Post-emergence effectiveness ECHCG (Echinochloa crus-galli [8]; 80 g/ha) [%]	Post-emergence effectiveness SETVI (Setaria viridis [9]; 80 g/ha) [%]	Pre-emergence effectiveness CYPES (Cyperus esculentus) [%]	Post-emergence effectiveness ALOMY (Alopecurus myosuroides [3]; 20 g/ha) [%]	Post-emergence effectiveness AVEFA (Avena fatua [4]; 80 g/ha) [%]	Post-emergence effectiveness LOLMU (Lolium multiflorum [10]; 20 g/ha) [%]	Post-emergence effectiveness LOLMU (Lolium multiflorum [10]; 80 g/ha) [%]	Post-emergence effectiveness SETVI (Setaria viridis [9]; 20 g/ha) [%]	other results
CC#Cc1cc(C)c(C2=C(OC(=O)OCC)C3(CCC(OC)CC3)NC2=O)c(CC)c1 (centres unmarked) [WO 2015/040114, reference compound]																					Comparison data for pre-emergence effectiveness AVEFA (Avena fatua [1]; 20 g a.i./ha): 50%; Comparison data for pre-emergence effectiveness CYPES (Cyperus esculentus; 20 g a.i./ha): 0%; Comparison data for pre-emergence effectiveness SETVI (Setaria viridis [2]; 20 g a.i./ha): 80%; Comparison data for post-emergence effect ALOMY (Alopecurus myosuroides [3]; 20 g a.i./ha): 80%; Comparison data for post-emergence effect AVEFA (Avena fatua [4]; 20 g a.i./ha): 70%; Comparison data for post-emergence effect PHBPU (PHBPU): 0%
CCOC(=O)OC1=C(c2c(C)cc(C#CC3CC3)cc2CC)C(=O)N[C@]12CC[C@H](COC)C2 [Example Ia-1]	90	100	90	100	100	100	100	100	100	90	80	90	100	90							Pre-emergence effectiveness AVEFA (Avena fatua [1]; 80 g/ha): 80%
CCOC(=O)OC1=C(c2c(C)cc(C#CC3CC3)cc2C)C(=O)NC12CCC(COC)C2 (centres unmarked) [Example Ia-2]	80	100		100	100		80	90	100				80	80	100						
CCc1cc(C#CC2CC2)cc(C)c1C1=C(O)C2(CCC(COC)C2)NC1=O (centres unmarked) [Example I-11]	100	100	80	100	100	100	100	90	100	80	100	100	100	100	100	80	100	90	100	100	Post-emergence effectiveness AVEFA (Avena fatua [4]; 20 g/ha): 80%
COCC1CCC2(CC1)NC(=O)C(c1c(C)cc(C#CC3CC3)cc1C)=C2O (centres unmarked) [Example I-8]	90	100		100	100	90	100	80	90	90	100	100	100	100		90	80	90	90	100	
CC#Cc1cc(C)c(C2=C(O)C3(CCC(CCOC)CC3)NC2=O)c(CC)c1 (centres unmarked) [Example I-2]	100	100	100	100	100	100	100	100	100	100	100	100	100	100	100	90	100	90	100	100	Pre-emergence effectiveness AVEFA (Avena fatua [1]; 80 g/ha): 80%; Post-emergence effectiveness AVEFA (Avena fatua [4]; 20 g/ha): 90%
